According to patent publication US5650428A, “Arylsulfonamide derivative and pharmaceutical compositions and use thereof” (NKK Corporation, priority 1993, dated 1997):
Where a name gives a salt, the structure may show the parent alone.

Legend:
[1] = molecular target: T1, thromboxane A2 (TxA2) receptor (Cavia porcellus, UniProt A0A286Y4I8); experiment: TxA2 antagonist action by binding assay; conditions: washed guinea pig platelets, 1 nM [3H]-SQ29,548, 45 minutes at 25° C.
T1 construct: to obtain washed platelets; from tissue; host or cells: washed platelets of male Hartley guinea pigs
T1 sequence (A0A286Y4I8 1-347): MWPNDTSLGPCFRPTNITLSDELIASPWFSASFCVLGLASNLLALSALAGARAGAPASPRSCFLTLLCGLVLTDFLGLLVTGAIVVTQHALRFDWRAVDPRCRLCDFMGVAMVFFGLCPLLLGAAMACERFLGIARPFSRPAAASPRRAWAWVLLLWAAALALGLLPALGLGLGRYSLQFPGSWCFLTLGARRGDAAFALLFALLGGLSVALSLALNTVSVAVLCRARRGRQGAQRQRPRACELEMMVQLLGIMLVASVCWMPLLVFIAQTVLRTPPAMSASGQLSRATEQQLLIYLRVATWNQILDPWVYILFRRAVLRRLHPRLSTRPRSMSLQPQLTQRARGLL
Experimental: (1) TxA2 antagonist action by binding assay Guinea pigs (Hartley; male; body weight=approximately 500 g) were anesthetized with ether, and the blood was collected into sodium citrate (final concentration=0.38%). The preparation of platelets was carried out at room temperature. The platelet rich plasma was obtained by centrifugation at 980 rpm for 10 minutes. One tenth (1/10) amount of 77 mM-EDTA-Na (pH 7.4) was added to the platelet rich plasma, and the mixture was centrifuged for 10 minutes at 3000 rpm. The suspension was again centrifuged at 3000 rpm for 10 minutes. The precipitate was further resuspended in a suspension buffer (2) shown in Table 2 to obtain washed platelets. The number of platelets was counted by an automatic blood cell counter (Sysmex Microcellcounter F-800) and the sample was diluted with the suspension buffer to 4×10^8 cells/ml. The platelets, sample solution and labeled compounds were placed into plastic tubes in amounts (volumes) shown in the following Table 3, incubated for 45 minutes at 25° C., and then the mixture was filtered using a cell harvester (Brandel cell harvester M-24R) by a glass fiber filter (Whatman GF/B). After the filter was sufficiently dried, the scintillation was counted by a scintillation counter (Beckman LS5000TD). IC50 was calculated from (binding)/(control binding) ratio in the presence of an antagonist. [table 3: the next 10 blocks are its lines as printed, fixed-width]

rat platelet = experiment: Inhibitory activity of aggregation in rat platelet; format: cell-based; conditions: rat platelet rich plasma, arachidonic acid (final concentration 0.5 mM) as inducer; read-out: C: Inhibitory activity of aggregation in rat platelet (IC50; μM)
Experimental: (3) Inhibitory Activity of Aggregation in Rat Platelet The abdomen of etherized rat was open, and blood was taken from the abdominal arteries, using a sodium citrate solution (final concentration was 0.38%). The blood was centrifuged at 1100 rpm for 10 minutes, and the supernatent was separated as the platelet rich plasma. The plasma was further centrifuged at 2000 rpm for 15 minutes to obtain the supernatent as a platelet poor plasma. The platelet rich plasma (280 μl) was placed in a measuring cuvette and preincubated for 1 minute at 37° C. Then, a sample solution (10 μl) was added. After 2 minutes, an arachidonic acid solution (final concentration=0.5 mM) (10 μl) was added as an inducer. The change in light transmission was recorded for 5 minutes.

Row | IC50 [1] | IC50 (rat platelet) | SMILES
1 | 22 µM | 17.1 µM | CSCC[C@@H](NS(=O)(=O)c1ccc(Cl)cc1)C(=O)Nc1ccc(CC(=O)O)cc1 [Example 235, (R)-N-(4-(carboxymethyl)phenyl)-2-(4-chlorobenzenesulfonylamino)-4-methylthiobutanamide]
2 | 0.019 µM | 1.7 µM | O=C(O)Cc1ccc(NC(=O)C(COc2cccc(Cl)c2)NS(=O)(=O)c2ccc(I)cc2)cc1 (racemic) [Example 151, (RS)-N-(4-(carboxymethyl)phenyl)-3-(3-chlorophenoxy)-2-(4-iodobenzenesulfonylamino) propanamide]
3 | 0.72 µM | 0.54 µM | O=C(O)Cc1ccc(NC(=O)C(COc2ccccc2)NS(=O)(=O)c2ccc(Cl)cc2)cc1 (racemic) [Example 129, (RS)-N-(4-(carboxymethyl)phenyl)-2-(4-chlorobenzenesulfonylamino)-3-phenoxypropanamide]
4 | 0.23 µM | 5.3 µM | O=C(O)Cc1ccc(NC(=O)C(COC2CCCCO2)NS(=O)(=O)c2ccc3ccccc3c2)cc1 (racemic) [Example 60, (RS)-N-(4-(carboxymethyl)phenyl)-N-(4-(carboxymethyl)phenyl)-2-(2-naphthalenesulfonylamino)-3-(tetrahydropyran-2-yloxy)propanamide]
5 | 0.11 µM | 1.7 µM | O=C(O)CCc1cccc(NC(=O)C(COC2CCCCO2)NS(=O)(=O)c2ccc(Cl)cc2)c1 (racemic) [Example 46, (RS)-N-(3-(carboxyethyl)phenyl)-2-(4-chlorobenzenesulfonylamino)-3-(tetrahydropyran-2-yloxy)propanamide]
6 | 1.5 µM | 1.79 µM | O=C(O)CCc1ccc(NC(=O)C(Cn2ccnc2)NS(=O)(=O)c2ccc(Cl)cc2)cc1 (racemic) [Example 95, (RS)-N-(4-(2-carboxyethyl)phenyl)-2-(4-chlorobenzenesulfonylamino)-3-(1H-imidazol-1-yl)propanamide hydrochloride]
7 | 0.0071 µM | 0.055 µM | O=C(O)Cc1ccc(NC(=O)[C@H](Cc2ccccc2)NS(=O)(=O)c2ccc(Br)cc2)cc1 [Example 252, (S)-2-(4-bromobenzenesulfonylamino)-N-(4-(carboxymethyl)phenyl)-3-phenylpropanamide]
8 | 1.7 µM | 0.4 µM | O=C(O)CCCCCNC(=O)C(COC1CCCCO1)NS(=O)(=O)c1ccc(Cl)cc1 (racemic) [Example 49, (RS)-N-(5-carboxypentyl)-2-(4-chlorobenzenesulfonylamino)-3-(tetrahydropyran-2-yloxy)propanamide]
9 | 0.051 µM | 0.53 µM | O=C(O)Cc1ccc(NC(=O)C(COc2cccc(Cl)c2)NS(=O)(=O)c2ccc(Br)cc2)cc1 (racemic) [Example 144, (RS)-2-(4-bromobenzenesulfonylamino)-N-(4-(carboxymethyl)phenyl)-3-(3-chlorophenoxy) propanamide]
10 | 2.2 µM | 1.7 µM | O=C(O)Cc1ccc(NC(=O)C(COC2CCCCO2)NS(=O)(=O)c2ccccc2)cc1 (racemic) [Example 52, (RS)-2-(benzenesulfonylamino)-N-(4-(carboxymethyl)phenyl)-3-(tetrahydropyran-2-yloxy) propanamide]
11 | 0.15 µM | 0.55 µM | O=C(O)Cc1ccc(NC(=O)C(COc2ccccc2)NS(=O)(=O)c2ccc(F)cc2)cc1 (racemic) [Example 136, (RS)-N-(4-(carboxymethyl)phenyl)-2-(4-fluorobenzenesulfonylamino)-3-phenoxypropanamide]
12 | 0.42 µM | 3.6 µM | O=C(O)Cc1cccc(NC(=O)C(COC2CCCCO2)NS(=O)(=O)c2ccc(Cl)cc2)c1 (racemic) [Example 45, (RS)-N-(3-(carboxymethyl)phenyl)-2-(4-chlorobenzenesulfonylamino)-3-(tetrahydropyran-2-yloxy)propanamide]
13 | 0.012 µM | 0.053 µM | O=C(O)Cc1ccc(NC(=O)[C@H](Cc2ccccc2)NS(=O)(=O)c2ccc(Cl)cc2)cc1 [Example 248, (S)-N-(4-(carboxymethyl)phenyl)-2-(4-chlorobenzenesulfonylamino)-3-phenylpropanamide]
14 | 0.06 µM | 0.89 µM | O=C(O)Cc1ccc(NC(=O)C(CC2CCCCC2)NS(=O)(=O)c2ccc(Cl)cc2)cc1 (racemic) [Example 260, (RS)-N-(4-(carboxymethyl)phenyl)-2-(4-chlorobenzenesulfonylamino)-3-cyclohexylpropanamide]
15 | 0.15 µM | 0.53 µM | COc1ccc(S(=O)(=O)NC(COC2CCCCO2)C(=O)Nc2ccc(CC(=O)O)cc2)cc1 (racemic) [Example 57, (RS)-N-(4-(carboxymethyl)phenyl)-2-(4-methoxybenzenesulfonylamino)-3-(tetrahydropyran-2-yloxy)propanamide]
16 | 0.29 µM | 1.6 µM | CCSCCC(NS(=O)(=O)c1ccc(Cl)cc1)C(=O)Nc1ccc(CCC(=O)O)cc1 (racemic) [Example 244, (RS)-N-(4-(2-carboxyethyl)phenyl)-2-(4-chlorobenzenesulfonylamino)-4-ethylthiobutanamide]
17 | 0.16 µM | 1.7 µM | O=C(O)Cc1ccc(NC(=O)C(COc2ccc(Cl)cc2)NS(=O)(=O)c2ccc(Cl)cc2)cc1 (racemic) [Example 130, (RS)-N-(4-(carboxymethyl)phenyl)-2-(4-chlorobenzenesulfonylamino)-3-(4-chlorophenoxy)propanamide]
18 | 0.1 µM | 1.7 µM | O=C(O)Cc1ccc(NC(=O)C(COc2ccc(Cl)cc2)NS(=O)(=O)c2ccc(F)cc2)cc1 (racemic) [Example 137, (RS)-N-(4-(carboxymethyl)phenyl)-3-(4-chlorophenoxy)-2-(4-fluorobenzenesulfonylamino)propanamide]
19 | 0.2 µM | 0.53 µM | O=C(O)Cc1ccc(NC(=O)C(COC2CCCCO2)NS(=O)(=O)c2ccc(F)cc2)cc1 (racemic) [Example 53, (RS)-N-(4-(carboxymethyl)phenyl)-2-(4-fluorobenzenesulfonylamino)-3-(tetrahydropyran-2-yloxy)propanamide]
20 | 48.2 µM | 3.4 µM | CCCC[C@@H](NS(=O)(=O)c1ccc(Cl)cc1)C(=O)Nc1ccc(CC(=O)O)cc1 [Example 224, (R)-N-(4-(carboxymethyl)phenyl)-2-(4-chlorobenzenesulfonylamino)hexanamide]
21 | 1.9 µM | 1.7 µM | O=C(O)Cc1ccc(NC(=O)C(Cn2ccnc2)NS(=O)(=O)c2ccc(F)cc2)cc1 (racemic) [Example 103, (RS)-N-(4-(carboxymethyl)phenyl)-2-(4-fluorobenzenesulfonylamino)-3-(1H-imidazol-1-yl)propanamide]
22 | 0.0087 µM | 0.17 µM | O=C(O)c1cccc(NC(=O)[C@H](Cc2ccccc2)NS(=O)(=O)c2ccc(Br)cc2)c1 [Example 257, (S)-2-(4-bromobenzenesulfonylamino)-N-(3-carboxyphenyl)-3-phenylpropanamide]
23 | 0.3 µM | 1.7 µM | Cc1ccc(S(=O)(=O)NC(COC2CCCCO2)C(=O)Nc2ccc(CC(=O)O)cc2)cc1 (racemic) [Example 56, (RS)-N-(4-(carboxymethyl)phenyl)-2-(4-methylbenzenesulfonylamino)-3-(tetrahydropyran-2-yloxy)propanamide]
24 | 0.019 µM | 5.4 µM | O=C(O)Cc1ccc(NC(=O)C(COc2ccc(Cl)cc2)NS(=O)(=O)c2ccc(I)cc2)cc1 (racemic) [Example 150, (RS)-N-(4-(carboxymethyl)phenyl)-3-(4-chlorophenoxy)-2-(4-iodobenzenesulfonylamino)propanamide]
25 | 0.026 µM | 0.055 µM | CSCC[C@H](NS(=O)(=O)c1ccc(Br)cc1)C(=O)Nc1ccc(CC(=O)O)cc1 [Example 239, (S)-2-(4-bromobenzenesulfonylamino)-N-(4-(carboxymethyl)phenyl)-4-methylthiobutanamide]
26 | 0.012 µM | 0.17 µM | O=C(O)Cc1ccc(NC(=O)C(Cc2ccccc2)NS(=O)(=O)c2ccc(Br)cc2)cc1 (racemic) [Example 251, (RS)-2-(4-bromobenzenesulfonylamino)-N-(4-(carboxymethyl)phenyl)-3-phenylpropanamide]
